Publication PMC6675120, “Potent and selective inhibitors for M32 metallocarboxypeptidases identified from high-throughput screening of anti-kinetoplastid chemical boxes” (PLoS Neglected Tropical Diseases, 2019)

How the values were obtained:
[1] = target: T. cruzi sterol 14-α demethylase (CYP51); set-up: method as in https://pubchem.ncbi.nlm.nih.gov/compound/91800813; settings: ref https://pubchem.ncbi.nlm.nih.gov/compound/91800813; cited from earlier work
Purified rabbit lung ACE = target: T1, Purified rabbit lung ACE (Oryctolagus cuniculus, UniProt P12822); assay: ACE assay with Abz-FRK(Dnp)P-OH, dose-response; type: biochemical; settings: dose-response 7,5 pM to 62,5 μM
T1 construct: Purified rabbit lung ACE (EC 3.4.15.1) was purchased from Sigma-Aldrich; purchased Sigma-Aldrich; host or cells: rabbit lung tissue
T1 sequence (P12822 34-1310): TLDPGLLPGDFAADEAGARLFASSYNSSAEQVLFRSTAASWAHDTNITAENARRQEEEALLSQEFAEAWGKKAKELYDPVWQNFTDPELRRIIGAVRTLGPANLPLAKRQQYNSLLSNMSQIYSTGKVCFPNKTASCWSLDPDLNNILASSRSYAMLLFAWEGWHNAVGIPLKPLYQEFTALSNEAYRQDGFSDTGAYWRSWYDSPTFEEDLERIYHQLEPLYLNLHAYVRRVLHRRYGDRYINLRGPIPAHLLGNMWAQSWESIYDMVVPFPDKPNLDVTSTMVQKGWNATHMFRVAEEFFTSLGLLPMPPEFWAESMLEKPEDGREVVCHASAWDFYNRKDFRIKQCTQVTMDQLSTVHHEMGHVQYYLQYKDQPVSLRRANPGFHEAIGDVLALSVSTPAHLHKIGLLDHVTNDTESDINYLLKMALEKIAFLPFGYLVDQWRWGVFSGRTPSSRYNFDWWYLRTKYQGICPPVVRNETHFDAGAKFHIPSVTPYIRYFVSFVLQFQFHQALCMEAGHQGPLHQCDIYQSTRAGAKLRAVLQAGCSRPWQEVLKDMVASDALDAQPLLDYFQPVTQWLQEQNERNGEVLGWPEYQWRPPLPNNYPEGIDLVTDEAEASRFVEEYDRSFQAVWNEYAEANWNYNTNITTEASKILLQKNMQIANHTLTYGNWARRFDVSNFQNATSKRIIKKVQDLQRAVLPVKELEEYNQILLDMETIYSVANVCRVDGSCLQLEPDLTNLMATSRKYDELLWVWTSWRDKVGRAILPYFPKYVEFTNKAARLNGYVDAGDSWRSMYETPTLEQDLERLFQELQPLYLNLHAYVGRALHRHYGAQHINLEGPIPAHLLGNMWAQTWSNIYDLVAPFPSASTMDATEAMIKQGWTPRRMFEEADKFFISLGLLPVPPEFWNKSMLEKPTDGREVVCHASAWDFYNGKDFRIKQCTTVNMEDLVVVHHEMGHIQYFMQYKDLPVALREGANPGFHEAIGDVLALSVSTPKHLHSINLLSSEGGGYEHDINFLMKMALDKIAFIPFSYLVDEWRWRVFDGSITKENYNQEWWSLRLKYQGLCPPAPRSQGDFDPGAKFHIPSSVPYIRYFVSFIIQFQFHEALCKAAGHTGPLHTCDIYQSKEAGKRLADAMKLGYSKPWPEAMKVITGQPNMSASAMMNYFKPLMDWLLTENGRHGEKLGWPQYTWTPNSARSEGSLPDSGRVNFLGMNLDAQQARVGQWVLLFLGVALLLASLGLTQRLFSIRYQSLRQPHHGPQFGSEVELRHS
Experimental: Because M32 MCPs show a strong topological similarity with ACE [22], we chose this enzyme to estimate the IC50 value for each molecule.
(A) Purified rabbit lung ACE was assayed at 37°C in 0,1 M Tris-HCl pH 7,0 buffer containing 50 mM NaCl, 10 mM ZnCl2 and 0,01% Triton X-100. […] NI, no inhibitor added. […] In all cases, solid lines represent the best fit of four-parameter Hill equation to experimental data (closed circles).
Purified rabbit lung ACE (EC 3.4.15.1) was purchased from Sigma-Aldrich. Enzyme activity was assayed fluorimetrically with Abz-FRK(Dnp)P-OH (ex/em = 320/420 nm) as substrate in buffer 0,1 M Tris-HCl, 50 mM NaCl, 10 mM ZnCl2, pH 7.0 containing 0,01% Triton X-100 as indicated in [23].

SMILES: N#Cc1ccc(S(=O)(=O)N2CCN(Cc3cccc(-c4ccncc4)c3)CC2)cc1 [TCMDC-143620]
- IC50 [1]: 79 nM
- ACE inhibition (Purified rabbit lung ACE): inactive
